Values of other authors as cited in patent US7795226B2, “Control of radiation injury” (Biotempt B.V., priority 2006, dated 2010).

How the values were obtained:
radiation exposure = details: in vivo; cited from earlier work
gamma-irradiated mice [1] = details: mouse, in vivo; cited from earlier work
gamma-irradiated mice [2] = details: cited from earlier work

SMILES: O=C(O)c1ccc(/C=C/S(=O)(=O)Cc2ccc(Cl)cc2)cc1 [ON-01210, 4-carboxystyrl-4-chlorobenzylsulfone]
- radiation protection activity (in words) (radiation exposure): protective only if it is given pre-radiation exposure

SMILES: C[C@]12CCC(=O)C=C1CC[C@@H]1[C@@H]2CC[C@]2(C)C(=O)CC[C@@H]12 [androstenedione]
- protection against gamma-irradiation (in words) (gamma-irradiated mice [1]): No protection was observed

SMILES: O=c1c(-c2ccc(O)cc2)coc2cc(O)cc(O)c12 [genisteine]
- Dose reduction Factor (DRF) (gamma-irradiated mice [2]; best dose 200 mg/kg, 24 hours before irradiation): 1.16
- radioprotection (in words) (gamma-irradiated mice [2]; given one hour prior to whole body irradiation): no radioprotection was observed
